One experiment concerns the target T1, human OX2 receptors (Homo sapiens, UniProt O43614).
T1 construct: expressed in transfected cells; host or cells: HEK-293 cells
T1 sequence (O43614 1-444): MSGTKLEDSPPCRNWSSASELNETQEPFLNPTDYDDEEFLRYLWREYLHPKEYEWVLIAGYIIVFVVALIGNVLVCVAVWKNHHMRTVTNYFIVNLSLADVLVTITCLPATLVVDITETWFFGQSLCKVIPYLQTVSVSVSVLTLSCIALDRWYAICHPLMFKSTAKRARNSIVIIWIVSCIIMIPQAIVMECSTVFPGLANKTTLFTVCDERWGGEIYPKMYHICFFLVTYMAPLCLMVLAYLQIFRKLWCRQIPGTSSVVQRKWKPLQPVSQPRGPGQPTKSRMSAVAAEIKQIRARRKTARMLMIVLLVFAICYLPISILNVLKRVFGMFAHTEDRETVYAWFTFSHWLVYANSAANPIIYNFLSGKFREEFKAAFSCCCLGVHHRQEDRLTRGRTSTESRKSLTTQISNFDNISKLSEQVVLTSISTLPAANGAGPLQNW
Nature of the experiment: antagonistic activity against human OX2 receptor, calcium fluorimetry (Fluo-4NW) in transfected HEK-293 cells. The settings on record: HEK-293 cells transfected with human recombinant OX2, activated with orexin-B 10 nM; pKb = co-logarithm of apparent dissociation constant (modified Cheng Prusoff). Format: cell-based. As for the experimental part:
(§1) In a typical experiment, the antagonistic activity against human OX1 and OX2 receptors is determined by using CHO e HEK-293 cells transfected with human recombinant OX1 and OX2 receptors respectively, seeded at density of 2 and 3×10^4 cells/well respectively in a 96 fluorimetry well plate. Thus the plate was loaded with the calcium dye (Fluo-4NW/probenecid in HBSS, Hepes 20 mM, pH 7,4; Invitrogen) at 37° C. for 60 min. Afterward the temperature was equilibrated at 22° C. for 15 min and the [Ca2+]i measured directly on the plate by using a fluorescent plate reader (CellLux Perkin Elmer).
(§2) Invention compounds were dissolved in DMSO, diluted in HBSS (DMSO, 0.3% final) and added to the wells. After 5 min CHO cells were activated with orexin-A, 3 nM while HEK-293 cells were activated with orexin-B, 10 nM.
(§3) The compounds, dissolved in DMSO and diluted in the medium (DMSO, 0.3% final), have been analysed in the 1 nM-1 μM concentration range (every concentration in duplicate). The antagonistic activity has been expressed as pKb (co-logarithm of the apparent dissociation constant calculated by using the modified Cheng Prusoff equation).
(§4) The results are expressed as percent of control specific […] response ((measured specific response/control specific agonist response)×100) obtained in the presence of the test compounds.
(§5) The IC50 values (concentration causing a half-maximal inhibition of the control specific agonist response) were determinated by non-linear regression analysis of the concentration curves generated with mean replicate values using hill equation curve fitting. The IC50 values are obtained by the arithmetical mean of at least two experiments.

For a further experiment, the target named is T2, human OX1 receptors (Homo sapiens, UniProt O43613).
T2 construct: expressed in transfected cells; host or cells: CHO cells
T2 sequence (O43613 1-425): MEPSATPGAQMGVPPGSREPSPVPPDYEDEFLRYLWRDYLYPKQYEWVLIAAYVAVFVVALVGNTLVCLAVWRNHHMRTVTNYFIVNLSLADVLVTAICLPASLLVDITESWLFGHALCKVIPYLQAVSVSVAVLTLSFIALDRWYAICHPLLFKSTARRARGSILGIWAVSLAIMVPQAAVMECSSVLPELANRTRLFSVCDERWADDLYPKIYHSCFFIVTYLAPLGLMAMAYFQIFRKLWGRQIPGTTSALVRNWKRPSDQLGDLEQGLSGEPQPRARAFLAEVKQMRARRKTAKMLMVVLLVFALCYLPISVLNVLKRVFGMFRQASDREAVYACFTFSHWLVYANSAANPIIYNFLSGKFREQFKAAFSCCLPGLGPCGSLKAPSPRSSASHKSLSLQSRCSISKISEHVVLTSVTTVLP
Nature of the experiment: antagonistic activity against human OX1 receptor, calcium fluorimetry (Fluo-4NW) in transfected CHO cells. The experiment is classed as cell-based. To be noted: CHO cells transfected with human recombinant OX1, activated with orexin-A 3 nM; pKb = co-logarithm of apparent dissociation constant (modified Cheng Prusoff). How it is done: as §1, §2, §3, §4, §5

As for `N#Cc1ccc(-c2ncccn2)c(C(=O)N2[C@H](CNc3ccc(C(F)(F)F)cn3)CC[C@@H]3C[C@@H]32)c1` [Compound 4c, 4-(pyrimidin-2-yl)-3-((1S,3S,6R)-3-(((5-(trifluoromethyl)pyridin-2-yl)amino)methyl)-2-azabicyclo[4.1.0]heptane-2-carbonyl)benzonitrile], the Kb at human OX2 receptors was 79.4 nM; on human OX1 receptors it was 6.31 nM. Turning to `O=C(c1cc(Cl)ccc1-c1ncccn1)N1[C@H](CNc2cc(C(F)(F)F)ccn2)CC[C@@H]2C[C@@H]21` [Compound 4d, (5-chloro-2-(pyrimidin-2-yl)phenyl)((1S,3S,6R)-3-(((4-(trifluoromethyl)pyridin-2-yl)amino)methyl)-2-azabicyclo[4.1.0]heptan-2-yl)methanone], the Kb is 50.1 nM on human OX2 receptors and 7.94 nM at human OX1 receptors. For `Cc1ccc(-c2ncccn2)c(C(=O)N2[C@H](COc3ccc(C(F)(F)F)cn3)CC[C@H]3C[C@H]32)c1` [Compound 3g, (5-methyl-2-(pyrimidin-2-yl)phenyl)((1R,3S,6S)-3-(((5-(trifluoromethyl)pyridin-2-yl)oxy)methyl)-2-azabicyclo[4.1.0]heptan-2-yl)methanone] the same measures were 12.6 nM and 1.58 nM. On to `Cc1ccc(-c2ncccn2)c(C(=O)N2[C@H](CNc3ccc(C(F)(F)F)cn3)CC[C@H]3C[C@H]32)c1` [Compound 1d, (5-methyl-2-(pyrimidin-2-yl)phenyl)((1R,3S,6S)-3-(((5-(trifluoromethyl)pyridin-2-yl)amino)methyl)-2-azabicyclo[4.1.0]heptan-2-yl)methanone], for which the Kb at human OX2 receptors is 3.98 nM; at human OX1 receptors, 1.26 nM. On to `Cc1nc(C(=O)N2[C@H](CNc3ccc(Cl)cn3)CC[C@H]3C[C@H]32)c(-c2ccccc2)s1` [Compound 2b, ((1R,3S,6S)-3-(((5-chloropyridin-2-yl)amino)methyl)-2-azabicyclo[4.1.0]heptan-2-yl)(2-methyl-5-phenylthiazol-4-yl)methanone], for which the Kb was 15.8 nM at human OX2 receptors and 1.26 nM on human OX1 receptors. Take `O=C(c1cc(Cl)ccc1-c1ncccn1)N1[C@H](COc2ccc(Cl)cn2)CC[C@H]2C[C@H]21` [Compound 3e, (5-chloro-2-(pyrimidin-2-yl)phenyl)((1R,3S,6S)-3-(((5-chloropyridin-2-yl)oxy)methyl)-2-azabicyclo[4.1.0]heptan-2-yl)methanone]: the Kb on human OX2 receptors is 15.8 nM; on human OX1 receptors, 1 nM. As for `Cc1ccc(-c2ncccn2)c(C(=O)N2[C@H](CNc3ccc(Cl)cn3)CC[C@@H]3C[C@@H]32)c1` [Compound 4g, ((1S,3S,6R)-3-(((5-chloropyridin-2-yl)amino)methyl)-2-azabicyclo[4.1.0]heptan-2-yl)(5-methyl-2-(pyrimidin-2-yl)phenyl)methanone], the antagonist equilibrium constant (Kb) at human OX1 receptors is 1.58 nM. Take `N#Cc1ccc(-c2ncccn2)c(C(=O)N2[C@H](CNc3ccc(C(F)(F)F)cn3)CC[C@H]3C[C@H]32)c1` [Compound 1b, 4-(pyrimidin-2-yl)-3-((1R,3S,6S)-3-(((5-(trifluoromethyl)pyridin-2-yl)amino)methyl)-2-azabicyclo[4.1.0]heptane-2-carbonyl)benzonitrile]: the Kb on human OX2 receptors is 10 nM; on human OX1 receptors, 5.01 nM. In the case of `O=C(c1cc(Cl)ccc1-c1ncccn1)N1[C@H](CNc2nccc(C(F)(F)F)n2)CC[C@@H]2C[C@@H]21` [Compound 4h, (5-chloro-2-(pyrimidin-2-yl)phenyl)((1S,3S,6R)-3-(((4-(trifluoromethyl)pyrimidin-2-yl)amino)methyl)-2-azabicyclo[4.1.0]heptan-2-yl)methanone], on human OX1 receptors, the Kb is 31.6 nM. Consider `O=C(c1cc(Cl)ccc1-c1ncccn1)N1[C@H](CNc2ccc(C(F)(F)F)cn2)CC[C@H]2C[C@H]21` [Compound 1e, (5-chloro-2-(pyrimidin-2-yl)phenyl)((1R,3S,6S)-3-(((5-(trifluoromethyl)pyridin-2-yl)amino)methyl)-2-azabicyclo[4.1.0]heptan-2-yl)methanone], for which the figures for the Kb at human OX2 receptors and on human OX1 receptors were 12.6 nM and 2.51 nM, respectively. With `Cc1ccc(-c2ncccn2)c(C(=O)N2[C@H](CNc3nccc(C(F)(F)F)n3)CC[C@@H]3C[C@@H]32)c1` [Compound 4i, (5-methyl-2-(pyrimidin-2-yl)phenyl)((1S,3S,6R)-3-(((4-(trifluoromethyl)pyrimidin-2-yl)amino)methyl)-2-azabicyclo[4.1.0]heptan-2-yl)methanone], the Kb at human OX1 receptors is 25.1 nM.

For the compound `Cc1nc(C(=O)N2[C@H](CNc3nccc(C(F)(F)F)n3)CC[C@H]3C[C@H]32)c(-c2ccccc2)s1` [Compound 2c, (2-methyl-5-phenylthiazol-4-yl)((1R,3S,6S)-3-(((4-(trifluoromethyl)pyrimidin-2-yl)amino)methyl)-2-azabicyclo[4.1.0]heptan-2-yl)methanone], the values for the Kb at human OX2 receptors and at human OX1 receptors were 6.31 nM and 1.26 nM, respectively.

On to `N#Cc1ccc(-c2ncccn2)c(C(=O)N2[C@H](CNc3nccc(C(F)(F)F)n3)CC[C@H]3C[C@H]32)c1` [Compound 1j, 4-(pyrimidin-2-yl)-3-((1R,3S,6S)-3-(((4-(trifluoromethyl)pyrimidin-2-yl)amino)methyl)-2-azabicyclo[4.1.0]heptane-2-carbonyl)benzonitrile], for which the antagonist equilibrium constant (Kb) at human OX2 receptors is 20 nM; on human OX1 receptors it was 5.01 nM.

As to `O=C(c1cc(Cl)ccc1-c1ncccn1)N1[C@H](CNc2ccc(Cl)cn2)CC[C@@H]2C[C@@H]21` [Compound 4e, (5-chloro-2-(pyrimidin-2-yl)phenyl)((1S,3S,6R)-3-(((5-chloropyridin-2-yl)amino)methyl)-2-azabicyclo[4.1.0]heptan-2-yl)methanone], the Kb at human OX1 receptors is 3.98 nM.

As for `Cc1ccc(-c2ncccn2)c(C(=O)N2[C@H](CNc3cc(C(F)(F)F)ccn3)CC[C@@H]3C[C@@H]32)c1` [Compound 4f, (5-methyl-2-(pyrimidin-2-yl)phenyl)((1S,3S,6R)-3-(((4-(trifluoromethyl)pyridin-2-yl)amino)methyl)-2-azabicyclo[4.1.0]heptan-2-yl)methanone], the Kb is 39.8 nM on human OX2 receptors and 6.31 nM at human OX1 receptors. Turning to `Cc1ccc(-c2ncccn2)c(C(=O)N2[C@H](CNc3ccc(Cl)cn3)CC[C@H]3C[C@H]32)c1` [Compound 1c], the Kb at human OX2 receptors is 12.6 nM; on human OX1 receptors, 0.794 nM. The matching figures for `N#Cc1ccc(-c2ncccn2)c(C(=O)N2[C@H](CNc3ccc(Cl)cn3)CC[C@H]3C[C@H]32)c1` [Compound 1i, 3-((1R,3S,6S)-3-(((5-chloropyridin-2-yl)amino)methyl)-2-azabicyclo[4.1.0]heptane-2-carbonyl)-4-(pyrimidin-2-yl)benzonitrile]: 20 nM and 1.58 nM. For `Cc1ccc(-c2ncccn2)c(C(=O)N2[C@H](COc3ccc(Cl)cn3)CC[C@H]3C[C@H]32)c1` [Compound 3f, ((1R,3S,6S)-3-(((5-chloropyridin-2-yl)oxy)methyl)-2-azabicyclo[4.1.0]heptan-2-yl)(5-methyl-2-(pyrimidin-2-yl)phenyl)methanone] the same measures were 50.1 nM and 1 nM. As for `N#Cc1ccc(-c2ncccn2)c(C(=O)N2[C@H](COc3ccc(F)cn3)CC[C@H]3C[C@H]32)c1` [Compound 3b, 3-((1R,3S,6S)-3-(((5-fluoropyridin-2-yl)oxy)methyl)-2-azabicyclo[4.1.0]heptane-2-carbonyl)-4-(pyrimidin-2-yl)benzonitrile], at human OX1 receptors, the Kb is 79.4 nM.
